Experimental data as given in article PMC7746742, “The novel rexinoid MSU-42011 is effective for the treatment of preclinical Kras-driven lung cancer” (Scientific Reports, 2020).

What was measured:
A549 lung cancer cells = assay: MTT proliferation assay; type: cell-based, human; conditions: 0–1 μM rexinoids, 72 hr
Experimental: were treated with 0-1 μM rexinoids for 72 hr. Proliferation was measured using the MTT assay.
MTT Assay. A549 cells were plated in 96-well plates (2,000 cells/well). After overnight attachment, cells were treated with 2 fold dilutions (0-1000 nM rexinoids) for 72 hr. 50 μL 3-(4,5-dimethylthiazol-2-yl)-2,5-diphenyltetrazolium bromide (MTT; Sigma M2128) was added to each well, and cells were incubated at 37 °C for 4 hr. Media was removed and cells were lysed with developing solution (0.04 M HCl in isopropanol). Plates were read at 550 nm.
(also on this page, place not known: 110A549 Cell Proliferation (% DMSO Control) 37°C)

[1] = Mouse weights as a marker of drug toxicity; type: in vivo, A/J mice; conditions: rexinoids in diet; initial week 6, final week 20
From the text: Mouse weights were monitored as a marker of drug toxicity (Supplemental Fig. 3). […] There were no significant differences in the average weights between groups of mice on single drugs.
Control Bexarotene 42011 C/P Bex + C/P 42011 + C/P
Initial weight Final weight
Supplemental Fig 3: Mouse weights. A/J mice were weighed weekly during the study. Values shown represent average mouse weights (n = 14-15/group) before treatment diets (initial weight at week 6) and at the end of the study (final weight at week 20). * p < 0.01 compared to control, # p < 0.01 compared to bexarotene, ! p < 0.05 compared to MSU-42011 (one-way ANOVA followed by Tukey HSD); ** p < 0.05, *** p < 0.01 (two-tailed t test).

SREBP [2] = assay: SREBP mRNA expression assay in HepG2 cells (RT-PCR); type: cell-based, human; conditions: Homo sapiens, HepG2, 8 h, HepG2 cells, 300 nM rexinoids, 8 h, SREBP mRNA by RT-PCR; mean ± SD of 3 experiments; read-out: SREBP activation Fold induction vs. Control
Experimental: The goals of our structure–activity relationship (SAR) studies were to explore and discover new scaffolds that not only bind to RXR but also are able to independently modulate both iNOS and SREBP activity in accordance with a previously described screening paradigm. To characterize the effect of the novel rexinoids on SREBP elevation in vitro, HepG2 cells were treated with 300 nM rexinoids for 8 h and SREBP mRNA levels were measured by RT-PCR. SREBP expression ranged from no change to a 4.6-fold induction compared to the vehicle control when treated with the novel compounds. […] Analogs MSU- 41402, 41582, 41407, 41566, 41844, 41845, 42011, and 42166 induced an SREPB mRNA fold expression change of 1–1.5 normalized to a vehicle control, while bexarotene induced an mRNA fold expression change of > 2 (Table 1).
(§1) HepG2 were plated in 6-well plates (1 × 10^6 cells/well) and, after allowing the cells to attach overnight, were treated with 300 nM rexinoids and/or varying concentrations of T0901317 (TOCRIS # 2373), GSK 2033 (TOCRIS # 5694), HX 531 (TOCRIS # 3912) for 8 h. Total RNA was isolated with TRIzol (Invitrogen, Carlsbad, CA) and 2 µg RNA was used to synthesize cDNA using the SuperScript III reverse transcriptase kit (Invitrogen, Carlsbad, CA). Primers (IDT) for SREBP (F: 5′-GCCGGTTGATAGGCAGCTT-3′; R: 5′-GGTGAGTGGCGGAACCATT-3′) and GAPDH (F: 5′-[…]-3′; R: 5′-[…]-3′), the SYBR Green Supermix (Bio-rad Laboratories, Hercules, CA) and the QuantStudio 7 Flex Real-Time PCR system (95 °C for 20 s followed by 40 cycles of 95 °C for 15 s and 60 °C for 1 min were used to detect mRNA expression. Relative SREBP/GAPDH gene expression was calculated by the delta-delta Ct method. To evaluate protein expression by western blotting, HepG2 cells were plated as above and treated with 300 nM of rexinoids for 24 h. Cells were harvested and lysed in RIPA buffer (1 M Tris–Cl, 5 M NaCl, pH 7.4, 0.5 M EDTA, 25 mM sodium deoxycholate, 1% triton-X, 0.1% SDS, 0.0125% aprotinin) with protease inhibitors (1% PMSF/0.5% apoprotein/0.1%leupeptin). Protein concentration was measured using a BCA assay (Sigma-Aldrich). Proteins (10 µg/well) were separated in 10% SDS-PAGE gels and transferred to nitrocellulose membranes. Membranes were incubated with SREBP (Active Motif; 1:1000) and GAPDH (Santa Cruz Biotechnology; 1:8000) primary antibodies followed by anti-rabbit secondary antibodies conjugated to horseradish peroxidase (Cell Signaling). Signal was detected using the ECL Western Blotting Substrate (GE Healthcare), and protein levels quantified using ImageJ.

[3] = Plasma triglycerides in MMTV-neu mice fed rexinoids; type: in vivo; conditions: MMTV-neu mice fed rexinoids for 10 days, n=5-6 mice/group
Experimental: fold expression triglyceride
Supplemental Fig 1. Correlation of SREPB mRNA expression and triglyceride levels. HepG2 human liver cells were treated with 300 nM of rexinoids for 8 hr,and lysates analyzed by RT-PCR. Triglycerides in plasma from MMTV-neu mice fed rexinoids for10 days were measured using a commercial kit(Abcam). *, p <0.01 vs control; **, p<0.05 vs bex and LG268; n=5-6 mice/group.

[4] = Lipid levels in plasma (triglyceride and cholesterol kits); type: in vivo, A/J mice; conditions: 100 mg/kg diet for 12 weeks, n = 8, mean ± SE
Experimental: Triglyceride and cholesterol levels in plasma (n = 8 mice/group) harvested at necropsy were measured using the Triglyceride Quantification Assay Kit (Abcam) or the Cholesterol Quantification Kit (Sigma-Aldrich), respectively, using the recommended protocol supplied by the manufacturer.

SREBP [5] = assay: SREBP protein expression in HepG2 cells (western blot); type: cell-based, human; conditions: 300 nM rexinoids, 24 h
Experimental: Although we have confirmed that the iNOS assay correlates with in vivo efficacy, few investigators have used the induction of SREBP in vitro as a biomarker to predict the ability of novel rexinoids to increase triglycerides in vivo. Elevated triglycerides are a side-effect found with many RXR agonists in preclinical models and by bexarotene in humans[13],[14]. […] HepG2 human liver cells were used, as the liver is the major organ that regulates lipid homeostasis.
as §1

Q: Which results are given for `C=C(c1ccc(C(=O)O)cc1)c1cc2c(cc1C)C(C)(C)CCC2(C)C` [Bexarotene]?
A: Growth / proliferation of A549 lung cancer cells (A549 lung cancer cells): do not inhibit proliferation; Mouse weights during the study [1]: gained weight as expected; fold induction at 0.3 µM (SREBP [2]): > 2; Plasma triglyceride levels in mice [3]: 2.38 ± 0.3 nmol/µL; Cholesterol in plasma [4]: 1.99 ± 0.1ǂ µg/µL; Triglycerides in plasma [4]: 2.21 ± 0.16ǂ nmol/µL; Cholesterol in plasma ([4]; listed as bexarotene): 1.99 ± 0.1 µg/µL; Triglycerides in plasma ([4]; listed as bexarotene): 2.21 ± 0.16 nmol/µL; SREBP protein levels compared to DMSO control (SREBP [5]): increased SREBP protein levels
